{"source": "patent US20250049904A1", "about": "“IMMUNOSTIMULATORY COMPOSITIONS” (VICTORIA LINK LIMITED, priority 2021, published 2025)", "test_system": "tissue-resident memory T cells (TRM cells)", "test": "LPX-mRNA vaccination of mice i.v.; antigen-specific TRM, TEM and TCM cells in liver and spleen by flow cytometry", "format": "in vivo, C57BL/6 mice", "experimental": "FIG. 1 provides a graphical representation showing that LPX-mRNA vaccines containing CI058 induce high levels of liver TRM cells. Liposomes were prepared with DOTMA and DOPE lipids and complexed with mRNA encoding chicken ovalbumin (OVA) to give vaccine LPX-mOVA. Additional vaccines were prepared by including either the prototypical NKT cell agonist α-GalCer (LPX-mOVA-α-GalCer) or the derivative CI058, which has BODIPY attached via an —S in the 6 position of the galactose (LPX-mOVA-CI058). Recipient C57BL/6 mice were transferred 50,000 naïve OVA-specific TCR-transgenic CD8+ T cells (OT-I cells) to enhance the precursor frequency of antigen-specific T cells to aid detection of vaccine-induced responses. A day later, groups of mice (n=5-6) were vaccinated intravenously (0.08 nmol) with the different vaccines; a naive mouse was left untreated. After 28 days, mice were killed and liver and spleen collected for analysis of induced T cell response by flow cytometry. Antigen-specific cells were identified using fluorescent MHC/peptide tetramers containing the targeted CD8^+ T cell epitope recognised by OT-I cells, and expression of Ly5.1, a congenic marker expressed by the OT-I mouse strain and not recipient C57BL/6 mice. The antigen-specific cells were further characterised as resident-memory T cells (TRM cells; CD8^+ Ly5.1^+ […] CD62L^low cells), effector memory T cells (TEM cells; CD8^+ Ly5.1^+ CD44^+ CD69^− CD62L^low cells) or central memory cells (TCM cells; CD8^+ Ly5.1^+ CD44^+ CD69^− CD62Lhigh cells). (A) Percentages of TRM, TEM and TCM OT-I cells in each treatment group in liver. Mean±SEM for each T cell subset are shown; statistical analysis relates only to pairwise comparisons of the percentage of TRM cells between the treatment groups. Black bars: TRM cells; white bars: TEM cells; grey bars: TCM cells. *P<0.05, **P<0.01, ***P<0.001, ****P<0.0001. One-way ANOVA. (B) Percentages of RM, TEM and TCM OT-I cells in each treatment group in spleen. (C) Mean number of TRM cells in liver for each treatment group (±SEM); dots represent individual mice. Black bars: TRM cells; white bars: TEM cells; grey bars: TCM cells. *P<0.05, **P<0.01, ***P<0.001, ****P<0.0001. One-way ANOVA.\nDose response of LPX-mOVA-α-GalCer versus LPX-mOVA-CI058 vaccines. Analysis was in C57BL/6 mice, without transfer of OT-I cells, so endogenous T cell responses were monitored on a normal T cell repertoire. Groups of 5 mice were used, and vaccines were administered intravenously. After 28 days, mice were killed and liver tissue collected for analysis of induced T cell response by flow cytometry. Antigen-specific cells were identified using fluorescent MHC/peptide tetramers, and further characterised as resident-memory T cells (TRM CD8^+ CD44^+ CD69^+ CXCR6^+ CD49a^+ CD62L^low cells), effector memory T cells (TEM CD8^+ CD44^+ CD69^− KLRG1^+ CXCR3^+ CD62L^low cells) or central memory cells (TCM CD8^+ CD44^+ CD69^− CD62L^high cells). At the same timer, NKT cells in the liver were also evaluated using fluorescent CD1d/α-GalCer tetramers. These were characterised for expression of different markers of activation, including PD-1 (only the latter is shown here). White circles: LPX-mOVA-α-GalCer; black circles: LPX-mOVA-CI058. (A) Graph showing mean number of TRM cells in liver for each treatment group (±SEM) overdose range. ****P<0.0001. (B) Graph showing mean level of expression of the “invariant” NKT cell-associated TCR for each treatment group (±SEM), defined as level of binding of fluorescent CD1d/α-GalCer tetramers and expressed as mean fluorescence index. ****P<0.0001 (C) Graph showing mean level of expression of PD-1 on NKT cells for each treatment group (±SEM). **P<0.01\nTo examine whether a prodrug mechanism is involved in enhanced TRM cell induction, LPX-mOVA-CI058 vaccines were compared to vaccines containing different NKT cell agonist prodrugs. […]", "note": "“Also recorded” adds a separate entry of the source.", "data": [{"smiles": "CCCCCCCCCCCCCCCCCCCCCCCCCC(=O)N[C@@H](CO[C@H]1O[C@H](CSCC(=O)Nc2ccc(C3=C4C(C)=CC(C)=[N+]4[B-](F)(F)n4c(C)cc(C)c43)cc2)[C@H](O)[C@H](O)[C@H]1O)[C@H](O)[C@H](O)CCCCCCCCCCCCCC", "note": "[CI058, (2S,3S,4R)-1-(6-Deoxy-6-((2-((4-(5,5-difluoro-1,3,7,9-tetramethyl-5H-4λ4,5λ4-dipyrrolo[1,2-c:2′,1′-f][1,3,2]diazaborinin-10-yl)phenyl)amino)-2-oxoethyl)thio)-α-D-galactopyranosyloxy)-2-hexacosanoylamino-3,4-octadecandiol]", "values": [{"measurement": "overall level of T cell accumulation in liver", "setting": "LPX vaccines with vs without CI058", "result": "higher overall levels of T cell accumulation in liver"}, {"measurement": "accumulation (population size) of TRM cells in liver", "setting": "LPX-mOVA vaccines i.v., 28-30 days, compared to vaccines with α-GalCer or without agonist", "result": "significantly larger populations of TRM cells in the liver tissue; also recorded: significantly enhanced populations of liver TRM cells; also recorded: also enhanced"}, {"measurement": "proportion of TRM cells among antigen-specific T cells in liver and spleen", "setting": "LPX-mOVA vaccines i.v., OT-I cell transfer, 28 days after vaccination", "result": "enhanced in both tissues, although is consistently more pronounced in liver; also recorded: significantly biased towards TRM cells"}, {"measurement": "peak level of liver TRM cells in dose response", "setting": "LPX-mOVA-CI058 vs LPX-mOVA-α-GalCer, no OT-I transfer, day 28", "result": "significantly higher than achieved with vaccines with α-GalCer"}, {"measurement": "lower dose giving parity in liver TRM cell levels with α-GalCer vaccine", "setting": "dose response, LPX-mOVA-CI058 vs LPX-mOVA-α-GalCer, no OT-I transfer, day 28", "result": 10, "unit": "fold"}, {"measurement": "liver TRM cell induction, vaccine encoding malaria antigen RPL6", "setting": "endogenous T cell response, no T cell transfer, 30 days", "result": "enhancing liver TRM cell induction"}]}]}
